In PubChem BioAssay AID248 (DTP/NCI, 2004):
Several values for one entry are separate records, joined by “and”; a condition that tells them apart may be missing. Equal values may be shown once. Inconclusive results and toxic doses are left out. Rule as the data show it: active = T/C of 150% or more; inactive = T/C below 125%.

Tested on: L1210 leukemia ip in BDF1 mice, survival T/C
Experiment: NCI In Vivo Anticancer Drug Screen. Data for tumor model L1210 Leukemia (intraperitoneal) in B6D2F1 (BDF1) mice
Settings: endpoint: mean survival time, higher = longer survival
Outline: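 Survival endpoint. Drug-treated group vs vehicle group, expressed as T divided by C. Tumor passaged by transplantation.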

[1] = dose: 100.0 mg/kg/injection, schedule: Q01DX001 (ip), vehicle: acetone
[2] = dose: 100.0 mg/kg/injection, schedule: Q01DX009 (ip), vehicle: saline with Tween-80
[3] = dose: 100.0 mg/kg/injection, schedule: Q04DX003 (ip), vehicle: saline
[4] = dose: 200.0 mg/kg/injection, schedule: Q01DX001 (ip), vehicle: acetone
[5] = dose: 200.0 mg/kg/injection, schedule: Q01DX009 (ip), vehicle: saline with Tween-80
[6] = dose: 200.0 mg/kg/injection, schedule: Q04DX003 (ip), vehicle: saline
[7] = dose: 400.0 mg/kg/injection, schedule: Q01DX001 (ip), vehicle: acetone
[8] = dose: 400.0 mg/kg/injection, schedule: Q04DX003 (ip), vehicle: saline
[9] = dose: 100.0 mg/kg/injection, schedule: Q04DX002 (ip), vehicle: Klucel (hydroxypropylcellulose) (HPC)
[10] = dose: 200.0 mg/kg/injection, schedule: Q04DX002 (ip), vehicle: Klucel (hydroxypropylcellulose) (HPC)
[11] = dose: 400.0 mg/kg/injection, schedule: Q04DX002 (ip), vehicle: Klucel (hydroxypropylcellulose) (HPC)
[12] = dose: 100.0 mg/kg/injection, schedule: Q01DX009 (ip), vehicle: saline
[13] = dose: 100.0 mg/kg/injection, schedule: Q04DX003 (ip), vehicle: Klucel (hydroxypropylcellulose) (HPC)
[14] = dose: 200.0 mg/kg/injection, schedule: Q04DX003 (ip), vehicle: Klucel (hydroxypropylcellulose) (HPC)
[15] = dose: 400.0 mg/kg/injection, schedule: Q04DX003 (ip), vehicle: Klucel (hydroxypropylcellulose) (HPC)
[16] = dose: 100.0 mg/kg/injection, schedule: Q01DX001 (ip), vehicle: saline
[17] = dose: 200.0 mg/kg/injection, schedule: Q01DX001 (ip), vehicle: saline
[18] = dose: 400.0 mg/kg/injection, schedule: Q01DX001 (ip), vehicle: saline
[19] = dose: 50.0 mg/kg/injection, schedule: Q01DX001 (ip), vehicle: carboxymethylcellulose (CMC)
[20] = dose: 100.0 mg/kg/injection, schedule: Q01DX001 (ip), vehicle: carboxymethylcellulose (CMC)
[21] = dose: 200.0 mg/kg/injection, schedule: Q01DX001 (ip), vehicle: carboxymethylcellulose (CMC)
[22] = dose: 100.0 mg/kg/injection, schedule: Q04DX003 (ip), vehicle: saline with Tween-80
[23] = dose: 200.0 mg/kg/injection, schedule: Q04DX003 (ip), vehicle: saline with Tween-80
[24] = dose: 400.0 mg/kg/injection, schedule: Q04DX003 (ip), vehicle: saline with Tween-80
[25] = dose: 25.0 mg/kg/injection, schedule: Q01DX009 (ip), vehicle: Klucel (hydroxypropylcellulose) (HPC)
[26] = dose: 50.0 mg/kg/injection, schedule: Q01DX009 (ip), vehicle: Klucel (hydroxypropylcellulose) (HPC)

Measured: T/C

Cc1ccc(S(=O)(=O)NCN2C(=O)c3ccccc3C2=O)cc1
inactive: [1] 98 % of control | [2] 93 % of control | [3] 94 % of control | [4] 93 % of control | [5] 98 % of control | [6] 97 % of control | [7] 95 % of control | dose: 400.0 mg/kg/injection, schedule: Q01DX009 (ip), vehicle: saline with Tween-80 97 % of control | [8] 99 % of control

Nc1ccc(C(=O)O)cc1[N+](=O)[O-]
inactive: [9] 95 % of control | [10] 100 % of control | [11] 95 % of control

CCC(C)C(CCN1CCCC1)(CNC(=O)CN(CC)CC)c1cccc2ccccc12 (configuration not stated)
inactive: [12] 95 % of control

COc1ccc(C(=O)Nc2ccc([N+](=O)[O-])cc2O)cc1
inactive: [13] 103 % of control | [14] 104 % of control | [15] 97 % of control

CCOC(=O)C1CSCN1 (configuration not stated)
inactive: [3] 104 % of control | [6] 89 % of control

NC(=O)N/N=C(/CCC(=O)O)C(=O)O
inactive: [1] 98 % of control | dose: 100.0 mg/kg/injection, schedule: Q01DX009 (ip), vehicle: acetone 92 % of control | [3] 89 % of control | [4] 103 % of control | dose: 200.0 mg/kg/injection, schedule: Q01DX009 (ip), vehicle: acetone 100 % of control | [6] 93 % of control and 87 % of control | [7] 95 % of control | dose: 400.0 mg/kg/injection, schedule: Q01DX009 (ip), vehicle: acetone 94 % of control | [8] 91 % of control

Cc1ccc2c(ccc3ccc4ccccc4c32)c1
inactive: [13] 90 % of control | [14] 89 % of control | [15] 93 % of control

O=C(NOCc1cscn1)Nc1ccccc1
inactive: [16] 101 % of control | [17] 104 % of control | [18] 104 % of control

Oc1ccc(Cl)cc1/C=N\NC(=S)Nc1ccc2cn[nH]c2c1
inactive: [19] 102 % of control | [20] 86 % of control | [21] 102 % of control

OC1C(O)C(O)C2(CO2)C(O)C1O (configuration not stated)
inactive: dose: 600.0 mg/kg/injection, schedule: Q01DX Z (ip), vehicle: saline 112 % of control

CCCCCCC(O)/C=C/c1ccc(Cl)cc1 (configuration not stated)
inactive: [2] 94 % of control | [5] 91 % of control

CC(c1ccccc1)N1COc2ccc3ccccc3c2C1 (configuration not stated)
inactive: [19] 97 % of control | dose: 50.0 mg/kg/injection, schedule: Q01DX015 (ip), vehicle: carboxymethylcellulose (CMC) 96 % of control | [20] 93 % of control | dose: 100.0 mg/kg/injection, schedule: Q01DX015 (ip), vehicle: carboxymethylcellulose (CMC) 96 % of control | [22] 94 % of control | [21] 103 % of control | dose: 200.0 mg/kg/injection, schedule: Q01DX015 (ip), vehicle: carboxymethylcellulose (CMC) 97 % of control | [23] 93 % of control | dose: 400.0 mg/kg/injection, schedule: Q01DX001 (ip), vehicle: carboxymethylcellulose (CMC) 104 % of control | dose: 400.0 mg/kg/injection, schedule: Q01DX015 (ip), vehicle: carboxymethylcellulose (CMC) 90 % of control | [24] 88 % of control

C[CH2][Ge]([Cl])([CH2]C)[CH2]C
inactive: dose: 50.0 mg/kg/injection, schedule: Q04DX003 (ip), vehicle: saline with Tween-80 99 % of control

O=C(CS(=O)(=O)C1CCCCC1)C1CCCCC1
inactive: [22] 94 % of control | [23] 94 % of control | [24] 88 % of control

CC(=O)C1C=NCC(C)(C)N=CC(C(C)=O)C(C)=NCCCN=C1C.[Ni] (configuration not stated)
inactive: dose: 12.5 mg/kg/injection, schedule: Q01DX009 (ip), vehicle: Klucel (hydroxypropylcellulose) (HPC) 95 % of control | dose: 12.5 mg/kg/injection, schedule: Q04DX003 (ip), vehicle: Klucel (hydroxypropylcellulose) (HPC) 96 % of control | [25] 100 % of control | dose: 25.0 mg/kg/injection, schedule: Q04DX003 (ip), vehicle: Klucel (hydroxypropylcellulose) (HPC) 91 % of control | [26] 97 % of control | dose: 50.0 mg/kg/injection, schedule: Q04DX003 (ip), vehicle: Klucel (hydroxypropylcellulose) (HPC) 102 % of control

Cc1ccc(S(=O)(=O)NNC(=O)c2cc(C)c(C)cc2N)cc1
inactive: [16] 97 % of control | [17] 101 % of control | [18] 95 % of control

CC/C(C)=C\CC/C(C)=C\COc1ccccc1C
inactive: dose: 100.0 mg/kg/injection, schedule: Q04DX002 (ip), vehicle: saline with Tween-80 91 % of control | dose: 200.0 mg/kg/injection, schedule: Q04DX002 (ip), vehicle: saline with Tween-80 94 % of control | dose: 400.0 mg/kg/injection, schedule: Q04DX002 (ip), vehicle: saline with Tween-80 89 % of control

CCc1cnccc1C
inactive: dose: 20.0 mg/kg/injection, schedule: Q04DX003 (ip), vehicle: Klucel (hydroxypropylcellulose) (HPC) 108 % of control | [25] 102 % of control | dose: 40.0 mg/kg/injection, schedule: Q04DX003 (ip), vehicle: Klucel (hydroxypropylcellulose) (HPC) 102 % of control | [26] 107 % of control | dose: 80.0 mg/kg/injection, schedule: Q04DX003 (ip), vehicle: Klucel (hydroxypropylcellulose) (HPC) 108 % of control | dose: 100.0 mg/kg/injection, schedule: Q01DX009 (ip), vehicle: Klucel (hydroxypropylcellulose) (HPC) 111 % of control | [13] 104 % of control

CC(C)N(CCNc1nc(C(Cl)(Cl)Cl)nc2cc(Cl)ccc12)C(C)C
inactive: [22] 93 % of control | [23] 94 % of control

Cc1ccc(S(=O)(=O)F)cc1C(=O)NCc1ccc(OCc2nc(N)nc(N)c2-c2ccc(Cl)c(Cl)c2)cc1
inactive: dose: 32.5 mg/kg/injection, schedule: Q01DX001 (ip), vehicle: Klucel (hydroxypropylcellulose) (HPC) 96 % of control | dose: 65.0 mg/kg/injection, schedule: Q01DX001 (ip), vehicle: Klucel (hydroxypropylcellulose) (HPC) 96 % of control | dose: 130.0 mg/kg/injection, schedule: Q01DX001 (ip), vehicle: Klucel (hydroxypropylcellulose) (HPC) 96 % of control

Cc1ccc(S(=O)(=O)OC2C3OC(=S)OCC3OC3OC(C)(C)OC32)cc1 (configuration not stated)
inactive: dose: 25.0 mg/kg/injection, schedule: Q04DX002 (ip), vehicle: saline 104 % of control | dose: 50.0 mg/kg/injection, schedule: Q04DX002 (ip), vehicle: saline 107 % of control | dose: 100.0 mg/kg/injection, schedule: Q04DX002 (ip), vehicle: saline 107 % of control

Cc1ccc(S(=O)(=O)c2ccccc2C)s1
inactive: [16] 97 % of control | dose: 100.0 mg/kg/injection, schedule: Q04DX003 (ip), vehicle: acetone 94 % of control | [17] 98 % of control | dose: 200.0 mg/kg/injection, schedule: Q04DX003 (ip), vehicle: acetone 98 % of control | [18] 93 % of control | dose: 400.0 mg/kg/injection, schedule: Q04DX003 (ip), vehicle: acetone 94 % of control

Clc1ccc2nc3nc(-c4ccccc4)c(-c4ccccc4)nc3nc2c1
inactive: dose: 75.0 mg/kg/injection, schedule: Q01DX001 (ip), vehicle: other 98 % of control | dose: 150.0 mg/kg/injection, schedule: Q01DX001 (ip), vehicle: other 98 % of control | dose: 300.0 mg/kg/injection, schedule: Q01DX001 (ip), vehicle: other 96 % of control

Cc1ccc(C)c(NC(=O)c2ccc([N+](=O)[O-])cc2)c1
inactive: [9] 100 % of control | [10] 89 % of control | [11] 92 % of control

COC(=O)C(CO)NC(c1ccccc1)(c1ccccc1)c1ccccc1 (configuration not stated)
inactive: dose: 50.0 mg/kg/injection, schedule: Q01DX009 (ip), vehicle: saline 91 % of control | [12] 95 % of control | dose: 200.0 mg/kg/injection, schedule: Q01DX009 (ip), vehicle: saline 92 % of control | dose: 400.0 mg/kg/injection, schedule: Q01DX009 (ip), vehicle: saline 97 % of control
